{"source": "patent US11541027B2", "about": "(DelMar Pharmaceuticals, Inc., priority 2014, dated 2023)", "tested_on": "A549 (TKI-sensitive) human lung adenocarcinoma xenograft tumors", "assay": "A549 NSCLC xenograft tumor model in female Rag2 mice", "settings": "for MTV at Day 68 / Median survival / TCR at Day 68 / TGD / TGI (%): W, F × 3; for MTV at Day 68 / Median survival / TCR at Day 68 / TGD / TGI (%) / number of animals remaining on study on day 70 / day on which a mean tumor volume of 200 mm^3 was observed / day on which a mean tumor volume of 400 mm^3 was reached / doubling time: A549 model; for TCR at Day 68: tumor control ratio; for TGD: tumor growth delay vs untreated control, doubling time 200 to 400 mm^3; for TGI (%): tumor growth inhibition; for day on which a mean tumor volume of 200 mm^3 was observed / day on which a mean tumor volume of 400 mm^3 was reached: days post-inoculation; for doubling time: mean tumor volume 200 to 400 mm^3", "experimental": "Rag2 mice bearing subcutaneous human lung adenocarcinoma xenograft tumors of either TKI-resistant (H1975) or TKI-sensitive (A549) origin were treated.\nTwo human NSCLC cell lines, A549 (TKI-sensitive) and H1975 (TKI-resistant), were used as xenograft tumor models in female Rag2 mice. The mice were 6 to 8 weeks of age and weighed 18-23 grams. 10 mice were used per group.\nCisplatin was used in normal saline at a dose of 5 mg/kg. Administration was intravenous.\nAdministration was intraperitoneal.\nTreatment was initiated at a tumor volume of 100 mm^3 to 150 mm^3.\nThe cells were started from a frozen vial of lab stock that were frozen down from the ATCC original vial and kept in liquid nitrogen. Cell cultures with a passage number of 3 to 10 and a confluence of 80%-90% were used. […] Cells were subcultured once weekly with a split ratio 1:3 to 1:8 and expanded.\nFor cell preparation and harvesting for subcutaneous (s.c.) inoculation, the cells were rinsed briefly once with Hanks Balanced Salt Solution without calcium or magnesium. […] The cells were allowed to sit at 37° C. for a few minutes. The cells were observed under an inverted microscope until the cell layer was dispersed, fresh medium was added, 50 μL of cell suspension was taken and mixed with trypan blue (1:1), and the cells were counted and cell viability assessed by using Cellometer Auto T4. The cells were centrifuged at 200×g for 7 minutes and the supernatant was aspirated. The cells were resuspended in growth medium to obtain a concentration of 100×10^6 cells/mL. For inoculation, 5×10^6 cells were used in an injection volume of 50 μL per mouse in 1:1 Matrigel.\nOn day 0, tumor cells were implanted subcutaneously into mice in a volume of 50 μL in Matrigel using a 28-gauge needle; injection of the tumor cells was in the back of the mice. Mice were randomly assigned to groups based on tumor volume.\nFor administration, 5 mL of 0.9% sodium chloride for injection, USP (saline) was added to yield a DAG solution with a concentration of 8 mg/mL.\nMice were injected with the required volume to administer the prescribed dose (mg/kg) to the animals based on individual mouse weights using a 28-gauge needle. The injection volume was 200 μL for a 20-g mouse. The mice were briefly (less than 30 seconds) restrained during intravenous injections. Dilation of the vein for intravenous injections was achieved by holding the animals under a heat lamp for a period of between 1-2 minutes.\nMice were individually weighed and injected intraperitoneally according to body weight at the specified injection concentration (see Table 1). The injection volume was based on 200 μL per 20-g mouse. The abdominal surface was wiped down with 70% isopropyl alcohol to clean the injection site.\nTumor growth was monitored by measuring tumor dimensions with calipers beginning on the first day of treatment. Tumor length and width measurements were obtained each Monday, Wednesday, and Friday. Tumor volumes were calculated according to the equation L×W^2/2 with the length (in mm) being defined as the longer axis of the tumor. Animals were weighed at the time of tumor measurement. Tumors were allowed to grow to a maximum of 800 mm^3 before termination.\nAll animals had blood collected by cardiac puncture at termination for CBC (complete blood count) with differentiation.\nIn particular, signs of ill-health were based on body weight loss, change in appetite, and behavioral signs such as altered gait, lethargy, and gross manifestations of stress.", "key": {"[1]": {"settings": "group 5, 6 mg/kg i.p., only 3 of 9 scheduled doses"}}, "note": "“Also recorded” adds a separate entry of the source."}
{"substance": "dianhydrogalactitol", "values": [{"measurement": "MTV at Day 68", "setting": "1.5 mg/kg i.p. M", "value": 440, "unit": "mm^3"}, {"measurement": "Median survival", "setting": "1.5 mg/kg i.p. M", "value": 73.5, "unit": "days"}, {"measurement": "TCR at Day 68", "setting": "1.5 mg/kg i.p. M", "value": 0.69}, {"measurement": "TGD", "setting": "1.5 mg/kg i.p. M", "value": 9, "unit": "days"}, {"measurement": "TGI (%)", "setting": "1.5 mg/kg i.p. M", "value": 32, "unit": "%"}, {"measurement": "MTV at Day 68", "setting": "3 mg/kg i.p. M", "value": 303, "unit": "mm^3"}, {"measurement": "Median survival", "setting": "3 mg/kg i.p. M", "value": 82, "unit": "days"}, {"measurement": "TCR at Day 68", "setting": "3 mg/kg i.p. M", "value": 0.47}, {"measurement": "TGD", "setting": "3 mg/kg i.p. M", "value": 26, "unit": "days"}, {"measurement": "TGI (%)", "setting": "3 mg/kg i.p. M", "value": 55, "unit": "%"}, {"measurement": "body weight / tolerability of the dosage", "setting": "6 mg/kg i.p., treatment stopped after 3 doses, A549 tumor-bearing Rag2 mice", "value": "significant body weight loss; also recorded: significant weight loss and morbidity"}, {"measurement": "number of animals remaining on study on day 70", "setting": "group 3, 1.5 mg/kg i.p. Monday, Wednesday, Friday for 3 weeks", "value": "7/10"}, {"measurement": "day on which a mean tumor volume of 200 mm^3 was observed", "setting": "group 3, 1.5 mg/kg i.p.", "value": 45, "unit": "days"}, {"measurement": "day on which a mean tumor volume of 400 mm^3 was reached", "setting": "group 3, 1.5 mg/kg i.p.", "value": 67, "unit": "days"}, {"measurement": "doubling time", "setting": "group 3, 1.5 mg/kg i.p.", "value": 22}, {"measurement": "number of animals remaining on study on day 70", "setting": "group 4, 3 mg/kg i.p. Monday, Wednesday, Friday for 3 weeks", "value": "6/10"}, {"measurement": "day on which a mean tumor volume of 200 mm^3 was observed", "setting": "group 4, 3 mg/kg i.p.", "value": 42, "unit": "days"}, {"measurement": "day on which a mean tumor volume of 400 mm^3 was reached", "setting": "group 4, 3 mg/kg i.p.", "value": 81, "unit": "days"}, {"measurement": "doubling time", "setting": "group 4, 3 mg/kg i.p.", "value": 39}, {"measurement": "number of animals remaining on study on day 70", "setting": "[1]", "value": "8/10"}, {"measurement": "day on which a mean tumor volume of 200 mm^3 was observed", "setting": "[1]", "value": 54, "unit": "days"}, {"measurement": "hemoglobin (g/L), CBC analysis at termination, versus untreated control", "setting": "groups 4 or 5 (3 or 6 mg/kg i.p.), A549 tumor-bearing Rag2 mice", "value": "Statistical significance (p<0.05)"}]}
